Tests used:
[1] = tested on: IL-36α-injected ears of Balb/c mice; test: Mouse model of IL-36-induced ear thickening (GPP model); type: in vivo; conditions: intradermal IL36 mouse model (Example 1)
Protocol: (§1) For in vivo dosing, mice were dosed subcutaneously with Compound 1.136 once daily (s.c. q.d. in 1% HPMC) at 90 mg/kg unless stated otherwise, starting at day 0 of a study. The in vivo dose was predicted based on in vitro potency and the pharmacokinetic response to a single dose in mice. The minimum antagonist concentration (at trough) to fully cover a gradient-sensing chemoattractant receptor has been determined to correspond with the IC90 concentration (Schall, T. J., and A. E. Proudfoot. 2011. Overcoming hurdles in developing successful drugs targeting chemokine receptors. Nat Rev Immunol 11: 355-363).
Mouse model of IL-36-induced ear thickening. The right ear of 8-week old Balb/c mice received intradermal injections of recombinant murine IL-36α (150 μg per mouse formulated in PBS; BioLegend) every day for 5 days. Intradermal injections of PBS were given to the left ear as a control. Ear thickness was measured prior to start of study and each day thoughout the study using a digital micrometer. The imiquimod model of psoriasiform dermatitis was performed as previously described (Campbell Jet al. J Immunol. 2017; 199(9):3129-36. van der Fits et al. J Immunol 2009; 182(9):5836-45). Briefly, 5% Imiquimod (Fougera®) was applied daily to the shaved and depilated backs of Balb/c mice for up to 4 days. Control mice were treated with an application of Vaseline. Erythema, desquamation, and skin thickening were scored independently on a scale from 0 to 4 where 0=no disease; 1=slight disease; 2=moderate disease; 3=marked disease; 4=very marked disease (Campbell J et al. J Immunol. 2017; 199(9):3129-36. van der Fits et al. J Immunol 2009; 182(9):5836-45). Skin from the backs of mice was excised at the end of the study and processed for flow cytometry analysis,
Mouse anti-IL-17RA. (R&D Systems) was dosed as a positive control at 200-500 μg per mouse, i.p., q.d.

[2] = tested on: CD4 T cells, neutrophils and inflammatory dendritic cells within IL-36-treated skin; test: Flow cytometry of leukocytes accumulating in IL-36-treated skin; type: in vivo, mouse; conditions: intradermal IL36 mouse model (Example 1)
Protocol: as §1
Flow cytometry of leukocytes. Ears or excised skin samples were digested in collagenase A and 1 U/ml DNAse I with agitation for 30 min at 37° C. Cells were then dislodged from skin, filtered through a […] sieve, washed and re-suspended in FACS buffer (PBS with 10% FBS) for analysis.
Directly conjugated Monoclonal antibodies were from R&D Systems (Minneapolis, Minn.), BioLegend (San Diego, Calif.), or eBioscience/ThermoFisher (San Diego, Calif.). CD45.2 (104) in AlexaFluor488, Ly6C (HK1.4) in PE, CD90.2 (30-H12) in Per CP-Cy5.5, TCRVγ4 (UC3-10A6) in PE-Cy7, TCRβ (H57-597) in APC, CD4 (GK1.5) in APC-eFluor-780, TCRγδ (GL3) in BV-421, LIVE/DEAD fixable Aqua stain (Molecular Probes, Eugene, Oreg.), CD11c (N418) in BV650, Ly6G (1A4) in BV711 and CD11b (M1/70) in BV785. Flow cytometry data were acquired with a Fortessa (BD Biosciences) cytometer and analyzed using FlowJo v10.2

[3] = tested on: imiquimod-treated skin of Balb/c mice; conditions: reported in a previous study; cited from earlier work

For `CC(C)(C)[C@@H](Nc1c(Nc2ccc(Cl)c3c2C(=O)NC3)c(=O)c1=O)c1ccc(Cl)o1` [Compound 1.129], the IL36-induced inflammation [1] is given as “reduces IL36-induced inflammation”, the “Accumulation of CD4+αβ T cell population in IL36-inflamed skin” value [2] is given as “preventing accumulation” and the “Inflammation in topical imiquimod-induced model of plaque psoriasis” value [3] is given as “ameliorates inflammation”.

From patent publication US11684606B2, “Methods of treating generalized pustular psoriasis with an antagonist of CCR6 or CXCR2” (CHEMOCENTRYX, INC., priority 2018, dated 2023)
